Our source for the GI50 and TGI values is PubChem BioAssay (NCI).

Test systems include SK-OV-3 ovarian; COLO 205 colon; CAKI-1 renal; SNB-75 CNS; UO-31 renal; HOP-92 NSCLC; SF-539 CNS; NCI-H23 lung; HL-60(TB) leukemia; HS 578T breast.
What all share (experiment): NCI anticancer screen, dose series, 48 h

Values joined by “and” are separate entries in the source; they are usually repeats but may differ in a detail not shown here. Equal values may be shown once.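 The compound was tested at five concentrations on cells cultured in 96-well plates, with a 48-hour exposure period. GI50: concentration for 50% inhibition of growth. TGI: total growth inhibition.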

As to `COC[C@@H](N=C1NC(=O)/C(=C/c2ccc3ncccc3c2)S1)c1ccccc1`, the GI50 in the experiment with SK-OV-3 ovarian was 9.35 µM; with COLO 205 colon, 10.8 µM; in the experiment on CAKI-1 renal, 6.2 µM; in the experiment on SNB-75 CNS, 4.83 µM; in the experiment on UO-31 renal it was 6.7 µM; with HOP-92 NSCLC, 5.07 µM. The GI50 is 7.36 µM in the experiment on SF-539 CNS, 11.5 µM with NCI-H23 lung, 6.39 µM in the experiment on HL-60(TB) leukemia and 7.43 µM in the experiment with HS 578T breast. The TGI in the experiment with SK-OV-3 ovarian was over 25 µM; with COLO 205 colon, over 25 µM; in the experiment on CAKI-1 renal it was over 22.4 µM; in the experiment on SNB-75 CNS, over 22 µM; in the experiment with UO-31 renal, over 25 µM; with HOP-92 NSCLC, over 21.1 µM. The TGI in the experiment on SF-539 CNS is over 24 µM; with NCI-H23 lung, over 25 µM; with HL-60(TB) leukemia it was 19.2 µM; with HS 578T breast it was over 23.2 µM.
Consider `OCCN1CCN(CCCN2c3ccccc3Sc3ccc(Cl)cc32)CC1`, for which the GI50 was 3.04 µM with SK-OV-3 ovarian; 1.61 µM in the experiment with COLO 205 colon; 1.71 µM in the experiment with CAKI-1 renal; 3.97 µM in the experiment on SNB-75 CNS; 4.38 µM with UO-31 renal; 1.37 µM in the experiment on HOP-92 NSCLC. Also, the GI50 in the experiment with SF-539 CNS was 1.82 µM; with NCI-H23 lung it was 3.83 µM; with HL-60(TB) leukemia, 2.06 µM; with HS 578T breast, 1.98 µM. The TGI in the experiment with SK-OV-3 ovarian was determined as 10.2 µM; in the experiment on COLO 205 colon it was 3 µM; in the experiment with CAKI-1 renal, 4.52 µM; in the experiment with SNB-75 CNS, 15.6 µM; with UO-31 renal, 18.3 µM; in the experiment with HOP-92 NSCLC it was 6.72 µM. Also, the TGI with SF-539 CNS was found to be 3.94 µM; in the experiment with NCI-H23 lung, 18 µM; with HL-60(TB) leukemia, 4.16 µM; in the experiment on HS 578T breast, 5.71 µM.
Take `CN(c1ncccc1CNc1nc(Nc2ccc3c(c2)CC(=O)N3)ncc1C(F)(F)F)S(C)(=O)=O`: the GI50 in the experiment with SK-OV-3 ovarian is 5.04 µM and 4.61 µM; in the experiment on COLO 205 colon it was 0.601 µM and 1.11 µM; with CAKI-1 renal, 2.15 µM and 2.87 µM; in the experiment on SNB-75 CNS, 1.33 µM and 1.51 µM; in the experiment on UO-31 renal it was 2.88 µM and 2.82 µM; in the experiment with HOP-92 NSCLC it was 0.0987 µM and 0.192 µM. In addition, the GI50 in the experiment on SF-539 CNS is 1.96 µM and 2.35 µM; in the experiment on NCI-H23 lung, 1.79 µM and 2.16 µM; with HL-60(TB) leukemia, 2.02 µM and 1.38 µM; in the experiment with HS 578T breast it was 1.73 µM and 2.47 µM. Also, the TGI in the experiment with SK-OV-3 ovarian was over 100 µM; in the experiment on COLO 205 colon, 2.08 µM and 3.03 µM; in the experiment with CAKI-1 renal, over 52.4 µM; with SNB-75 CNS it was 4.78 µM and 4.8 µM; with UO-31 renal, over 28.7 µM; in the experiment on HOP-92 NSCLC, 1.85 µM and 5.99 µM. The TGI with SF-539 CNS was 5.18 µM and 6.93 µM; with NCI-H23 lung, 4.88 µM and 6.35 µM; in the experiment on HL-60(TB) leukemia, 5.72 µM and 5.51 µM; in the experiment with HS 578T breast it was 7.9 µM and > 10 µM.
For `O=S(=O)(NCCCNc1nccc(-c2c(-c3ccc(O)cc3)nc3sccn23)n1)c1ccc(F)cc1`, the GI50 in the experiment with SK-OV-3 ovarian is 2.12 µM; in the experiment with COLO 205 colon, 0.0527 µM; with CAKI-1 renal, 2.88 µM; with SNB-75 CNS, 1.03 µM; in the experiment on UO-31 renal, 2.33 µM; in the experiment with HOP-92 NSCLC, 2.65 µM. For the same molecule, the GI50 in the experiment on SF-539 CNS was 2.04 µM; in the experiment on NCI-H23 lung, 2.24 µM; with HL-60(TB) leukemia, 2.61 µM; with HS 578T breast, 2.8 µM. Besides, the TGI in the experiment on SK-OV-3 ovarian is 8.88 µM; in the experiment with COLO 205 colon, 2.19 µM; with CAKI-1 renal, over 100 µM; in the experiment with SNB-75 CNS, 7.91 µM; with UO-31 renal, 7.3 µM; in the experiment with HOP-92 NSCLC it was 8.56 µM. The TGI was 13.9 µM with SF-539 CNS, 7.7 µM with NCI-H23 lung, 5.61 µM in the experiment with HL-60(TB) leukemia and 6.99 µM in the experiment on HS 578T breast.
Take `CCN(CC)c1ccc(/C=N/NC(=O)CSc2nc3ccccc3c(=O)n2CCc2ccc(S(N)(=O)=O)cc2)c(O)c1`: the GI50 in the experiment with SK-OV-3 ovarian is 2.72 µM; in the experiment with COLO 205 colon, 3.22 µM; with CAKI-1 renal, 1.84 µM; in the experiment on SNB-75 CNS, 3.43 µM; in the experiment with UO-31 renal, 2.86 µM; with HOP-92 NSCLC, 2.15 µM. The GI50 in the experiment on SF-539 CNS was 2.42 µM; with NCI-H23 lung, 2.99 µM; in the experiment on HL-60(TB) leukemia it was 1.71 µM; in the experiment with HS 578T breast, 3.02 µM. Moreover, the TGI with SK-OV-3 ovarian was over 100 µM; in the experiment with COLO 205 colon, over 100 µM; in the experiment with CAKI-1 renal it was over 100 µM; with SNB-75 CNS it was over 100 µM; in the experiment on UO-31 renal, over 100 µM; with HOP-92 NSCLC, 75.2 µM. In addition, the TGI was 66.5 µM with SF-539 CNS, over 100 µM in the experiment with NCI-H23 lung, 6.44 µM in the experiment with HL-60(TB) leukemia and over 100 µM in the experiment with HS 578T breast.
Turning to `O=c1c2c(=NCCN3CCCC3)cc3c(=O)n(CCCN4CCOCC4)c(=O)c4c(-c5ccc(CN6CCCC6)cc5)cc(c(O)n1CCCN1CCOCC1)c2c4-3`, the GI50 was 0.086 µM in the experiment with SK-OV-3 ovarian; 0.0641 µM in the experiment on COLO 205 colon; 0.0346 µM with CAKI-1 renal; 0.0582 µM with SNB-75 CNS; 0.038 µM with UO-31 renal; 0.0178 µM in the experiment on HOP-92 NSCLC. Further, the GI50 in the experiment with SF-539 CNS is 0.0617 µM; with NCI-H23 lung, 0.0261 µM; in the experiment on HL-60(TB) leukemia, 0.231 µM; in the experiment on HS 578T breast it was 0.132 µM. The TGI with SK-OV-3 ovarian is 1.43 µM; in the experiment on COLO 205 colon it was 0.327 µM; in the experiment with CAKI-1 renal, 0.651 µM; in the experiment on SNB-75 CNS it was 0.228 µM; in the experiment on UO-31 renal it was 0.231 µM; in the experiment on HOP-92 NSCLC, 0.0735 µM. Moreover, the TGI in the experiment on SF-539 CNS turned out to be 0.274 µM; with NCI-H23 lung, 0.158 µM; in the experiment on HL-60(TB) leukemia, 1.64 µM; in the experiment on HS 578T breast, 0.57 µM.
Turning to `O=C(Oc1cccc2cccnc12)c1cc2c(cc1Cl)SC(N(c1ccc(F)cc1)S(=O)(=O)c1ccc(Br)s1)=NS2(=O)=O`, the GI50 is over 100 µM in the experiment with SK-OV-3 ovarian; 18.5 µM in the experiment on COLO 205 colon; 31.6 µM in the experiment with CAKI-1 renal; 26.5 µM in the experiment on SNB-75 CNS; 34.2 µM in the experiment with UO-31 renal; 22.5 µM in the experiment on HOP-92 NSCLC. For the same molecule, the GI50 with SF-539 CNS was 23.4 µM; with NCI-H23 lung it was 21.2 µM; in the experiment with HL-60(TB) leukemia it was 26.4 µM; in the experiment with HS 578T breast it was 38.9 µM. Moreover, the TGI is over 100 µM in the experiment with SK-OV-3 ovarian; 50.8 µM in the experiment with COLO 205 colon; 97.6 µM in the experiment with CAKI-1 renal; 93.5 µM with SNB-75 CNS; over 100 µM in the experiment with UO-31 renal; 48.5 µM with HOP-92 NSCLC. Besides, the TGI is 75.2 µM in the experiment with SF-539 CNS, 59 µM in the experiment on NCI-H23 lung, over 100 µM in the experiment with HL-60(TB) leukemia and over 100 µM in the experiment with HS 578T breast.
